Data taken from patent publication EP1507508B1, “COMPOSITION CONTAINING A PEPTIDE AND A PIGMENT AND THE USE THEREOF IN DARKENING THE SKIN” (JOHNSON & JOHNSON CONSUMER COMPANIES, INC., priority 2002, dated 2003).

Test system: Dark skinned Yucatan microswine
Experiment: Induced pigmentation in vivo, topical treatment, Fontana-Mason stained skin sections scored for pigment deposition
Conditions: average of all sites of responsive swine; topical twice a day, five days/week, eight or nine weeks; positive controls 1% (W/V), pigments 1% or 5% (W/V), peptides 250 µM or 500µM, combinations with pigments at 1%(W/V)
Experimental: Compositions were tested for their ability to induce in vivo pigmentation in skin cells in the following experiment. Dark skinned Yucatan microswine (Charles River, Portland, ME) were housed in appropriately sized cages in an environmentally controlled room with a 12-hour light - 12-hour dark photoperiod and supplied with food and water ad libitum. Animal care was based on the "Guide for the Care and Use of Laboratory Animals", NIH Publication No. 85-23. Twenty µl of test peptides were applied topically, twice a day, five days/week, for eight or nine weeks, on the dorsum of the swine. Treatments of individual swine were always arranged in a head to tail order on one side, and in a tail to head order on the other side of the animal. Biopsies were taken using standard techniques.
F&M staining identifies silver nitrate reducing molecules. In skin, this non-specific stain identifies primarily melanin. At least three sections per biopsy were processed. Each experiment was repeated at least three times.
Swine were treated with either: the known skin darkening agent forskolin (Sigma) or with a Coleus forskoli extract (ATZ Naturals, Englewood Cliffs, NJ) which contains forskolin, as a positive control at 1% (W/V); pigments at 1% or 5% (W/V); peptides at 250 µM or 500µM; and combinations of such peptides at 250 µM or 500µM with pigments at 1%(W/V). […]

| Molecule | Score |
| --- | --- |
| H2-Val-Gly-Val-Ala-Pro-Gly-NH2 (H-VGVAPG-NH2) [Peptide 1] | 1 |
| C=C[C@@]1(C)CC(=O)[C@]2(O)[C@@]3(C)[C@@H](O)CCC(C)(C)[C@@H]3[C@H](O)[C@H](OC(C)=O)[C@@]2(C)O1 [Forskolin] | 1 |
